Measured values from patent US11534283B2 (priority 2017, dated 2022).
Entries after “also recorded” stand apart in the source; their conditions may differ.

Tests used:
[1] = tested on: cells labeled adjacent the implantation site in the adult mouse cortex; type: cell-based
Description: Implantable devices were filled with α-bungarotoxin fused to the dye Alexa Fluor 555 (α-BTX Alexa 555) in PBS at a concentration of 0.3 mg/mL. Animals were treated with the implantable device for 2 hours prior to sacrifice. Tissues were prepared for live cell electrophysiology assays (patch clamp) and fluorescence imaging.
Implantable devices filled with fluorescently labeled α-bungarotoxin (α-BTX) were implanted and the release was studied via imaging and live cell electrophysiology assays.

adult mouse cortex = conditions: in vivo

Compound	electrophysiological activity of agonist AR-R17779 in the control group ([1]; cells labeled with control (Alexa 555) released from the device, patch clamp)	labeling of individual cells (uptake) (adult mouse cortex)	localization of fluorescence after release from the implantable device (adult mouse cortex)	electrophysiological response of the α-BTX labeled cell to agonist AR-R17779 [1]
O=C1NCC2(CN3CCC2CC3)O1 (stereo not shown) [AR-R17779]	inhibitory activity			
α-bungarotoxin [α-BTX-Alexa 555]		individual cells were clearly labeled; also recorded: labeling individual cells	local to the implantation site; also recorded: adjacent the implantation site	no activity
